Experimental data from patent US20090105283A1, “3-HYDROQUINAZOLIN-4-ONE DERIVATIVES FOR USE AS STEAROYL CoA DESATURASE INHIBITORS” (priority 2007, published 2009).

biological target: T1, stearoyl-CoA desaturase (SCD) (Rattus norvegicus, UniProt P07308); experiment: SCD assay with rat liver microsomes ([3H]stearoyl CoA, adapted from Talamo and Bloch); format: biochemical; conditions: Table 2 (Example 21, procedures of Example 20); rat liver microsomes, [3H]stearoyl CoA substrate
T1 construct: The microsomes were quickly thawed and added to assay buffer so that a concentration of 0.4 mg/ml was achieved; from tissue
T1 sequence (P07308 1-358): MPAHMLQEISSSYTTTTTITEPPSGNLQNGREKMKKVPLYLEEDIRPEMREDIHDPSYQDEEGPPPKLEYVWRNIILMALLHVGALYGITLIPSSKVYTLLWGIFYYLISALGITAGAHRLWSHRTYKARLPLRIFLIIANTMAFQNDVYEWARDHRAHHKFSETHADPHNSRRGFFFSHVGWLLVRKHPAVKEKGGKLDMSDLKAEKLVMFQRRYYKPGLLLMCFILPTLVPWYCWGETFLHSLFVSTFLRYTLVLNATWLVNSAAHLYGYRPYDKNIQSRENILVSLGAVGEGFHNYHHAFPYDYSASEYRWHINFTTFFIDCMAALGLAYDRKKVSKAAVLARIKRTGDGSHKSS
How it was run: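 Liver microsomes came from diet-induced male Sprague Dawley rats and were used at 0.2 mg/ml final. Assay buffer was Tris pH 7.2 with NADH, ATP, CoA, MgCl2 and 0.1% BSA. Compounds were preincubated 30 min, then reacted 45 min at room temperature with [3H]stearoyl-CoA; after TCA stop and Bio-Bead cleanup, supernatant radioactivity was counted by scintillation.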

Row | IC50 | Compound
1 | 1.7 µM | O=C(NCc1ccc(Cl)c(Cl)c1)c1ccc2c(=O)n(Cc3ccc(Cl)c(Cl)c3)cnc2c1 [compound 91, N,3-bis(3,4-dichlorobenzyl)-4-oxo-3,4-dihydroquinazoline-7-carboxamide]
2 | 1 µM | O=C(NCCO)c1ccc2c(=O)n(Cc3ccc(Cl)cc3)cnc2c1 [compound 92, 3-(4-chlorobenzyl)-N-(2-hydroxyethyl)-4-oxo-3,4-dihydroquinazoline-7-carboxamide]
3 | 3.1 µM | COCCNC(=O)c1ccc2c(=O)n(Cc3ccc(Cl)cc3)cnc2c1 [compound 93, 3-(4-chlorobenzyl)-N-(2-methoxyethyl)-4-oxo-3,4-dihydroquinazoline-7-carboxamide]
4 | 1.3 µM | NCC(=O)Nc1ccc2ncn(Cc3ccc(Cl)c(Cl)c3)c(=O)c2c1 [compound 94, 2-amino-N-(3-(3,4-dichlorobenzyl)-4-oxo-3,4-dihydroquinazolin-6-yl)acetamide]
5 | 12 µM | O=C(CCO)Nc1ccc2ncn(Cc3ccc(Cl)c(Cl)c3)c(=O)c2c1 [compound 95, N-(3-(3,4-dichlorobenzyl)-4-oxo-3,4-dihydroquinazolin-6-yl)-3-hydroxypropanamide]
6 | 3.9 µM | O=C(Nc1ccc2ncn(Cc3ccc(Cl)c(Cl)c3)c(=O)c2c1)[C@H](O)Cc1ccccc1 [compound 96, (R)—N-(3-(3,4-dichlorobenzyl)-4-oxo-3,4-dihydroquinazolin-6-yl)-2-hydroxy-3-phenylpropanamide]
7 | 4.8 µM | O=C(Nc1ccc2ncn(Cc3ccc(Cl)c(Cl)c3)c(=O)c2c1)[C@@H](O)Cc1ccccc1 [compound 97, (S)—N-(3-(3,4-dichlorobenzyl)-4-oxo-3,4-dihydroquinazolin-6-yl)-2-hydroxy-3-phenylpropanamide]
8 | 1.8 µM | O=C(C[C@H](O)c1ccccc1)Nc1ccc2ncn(Cc3ccc(Cl)c(Cl)c3)c(=O)c2c1 [compound 98, (S)—N-(3-(3,4-dichlorobenzyl)-4-oxo-3,4-dihydroquinazolin-6-yl)-3-hydroxy-3-phenylpropanamide]
9 | 1.7 µM | O=C(C[C@@H](O)c1ccccc1)Nc1ccc2ncn(Cc3ccc(Cl)c(Cl)c3)c(=O)c2c1 [compound 99, (R)—N-(3-(3,4-dichlorobenzyl)-4-oxo-3,4-dihydroquinazolin-6-yl)-3-hydroxy-3-phenylpropanamide]
10 | 2.3 µM | O=C(Nc1ccc2ncn(Cc3ccc(Cl)c(Cl)c3)c(=O)c2c1)[C@@H](O)c1ccccc1 [compound 100, (S)—N-(3-(3,4-dichlorobenzyl)-4-oxo-3,4-dihydroquinazolin-6-yl)-2-hydroxy-2-phenylacetamide]
11 | 0.48 µM | C[C@@H](c1ccc(Cl)c(C(F)(F)F)c1)n1cnc2ccc(NC(=O)CO)cc2c1=O [compound 102, (S)—N-(3-(1-(4-chloro-3-(trifluoromethyl)phenyl)ethyl)-4-oxo-3,4-dihydroquinazolin-6-yl)-2-hydroxyacetamide]
12 | 0.38 µM | O=C(Nc1ccc2ncn(C/C=C/COc3cc(Cl)ccc3Cl)c(=O)c2c1)OCc1ccccc1 [compound 103, (E)-benzyl 3-(4-(2,5-dichlorophenoxy)but-2-enyl)-4-oxo-3,4-dihydroquinazolin-6-ylcarbamate]
13 | 3.9 µM | O=C(Nc1ccc2ncn(Cc3ccc(Cl)c(Cl)c3)c(=O)c2c1)C(O)CO (centres unmarked) [compound 106, N-(3-(3,4-dichlorobenzyl)-4-oxo-3,4-dihydroquinazolin-6-yl)-2,3-dihydroxypropanamide]
14 | 0.89 µM | O=C(O)C(=O)Nc1ccc2ncn(Cc3ccc(Cl)c(Cl)c3)c(=O)c2c1 [compound 107, 2-(3-(3,4-dichlorobenzyl)-4-oxo-3,4-dihydroquinazolin-6-ylamino)-2-oxoacetic acid]
